Laboratory results taken from patent US11420944B2, “Voltage-dependent t-type calcium channel blocker” (Nippon Chemiphar Co., Ltd., priority 2016, dated 2022).

Target: T1, human Cav3.2 channels (Homo sapiens, UniProt O95180)
T1 construct: expressed in transfected cells; host or cells: HEK293 cells (ATCC No. CRL-1573), plasmid pcDNA3.1(+)
Experiment: Intracellular calcium concentration measurement (Fluo-4 AM) in stable cells expressing human Cav3.2 channels, buffer A / buffer B
Format: cell-based
Conditions: Tables 2 to 6; buffer A, equilibrium potential of potassium −92 mV; read-out: Inhibitory action of buffer A (inactivated state)
Source text: Construction of Stable Cells Expressing Human Cav3.2 Channels
(1) A sequence produced by incorporating HindIII site and kozak sequence (GCCACC) into the 5′-terminal side of human Cav3.2 channel ORF (Open Reading Frame) gene and incorporating Kpnl site into the 3′-terminal side was incorporated into pcDNA3.1(+) (Thermo-Fisher Scientific, Inc., #V790-20), and the plasmid was transfected into HEK293 cells (ATCC No. CRL-1573) according to the protocol of FuGENE (registered trademark) HD Transfection Reagent (PROMEGA #E2311).
(2) Method for Measuring Intracellular Calcium Concentration
In the present measurement system, buffer A and buffer B having different potassium ion concentrations were used in order to evaluate the state-dependent Cav3.2 inhibitory action of a test compound.
Stable cell line expressing human Cav3.2 channels, which had been produced in (1), was seeded in a 96-well plate using DMEM medium including 10% FBS, and the cells were cultured for 48 hours under the conditions of 37° C. and 5% CO2. Subsequently, the medium was removed, and various wells that had been washed with a base buffer were treated with 80 μL of a fluorescent dye solution containing a mixed liquid of 22 μg of calcium fluorescence indicator Fluo-4 AM (Dojindo Laboratories Co., Ltd., #F311), 20 μL of DMSO, […] of 10% Pluronic F-127 (Thermo-Fisher Scientific, Inc., #P6866), and 4 mL of a base buffer. The cells were left to stand for 45 minutes at room temperature in the dark, and then the cells were washed with buffer A or buffer B. Solutions having various test compound concentrations and respectively containing buffer A or buffer B were added to the respective wells, the respective solutions containing DMSO at the same final concentration as that of the test compound as negative control, or containing the test compound dissolved in 100% DMSO at a final concentration of 0.1%. The cells were left to stand for another 15 minutes at room temperature in the dark, and the cells were analyzed using the following method using a microplate reader, EnVision (PerkinElmer, Inc.). First, the background fluorescence for each well was measured, subsequently an ionophore was added to the well, and the fluorescence of the baseline was measured. Subsequently, buffer A or buffer B containing added KCl at a concentration of 83.8 mM or 91.8 mM was added to each well, and an increase in fluorescence caused by a calcium influx generated by that stimulus was measured for 10 seconds. The percentage inhibition was calculated from the maximum fluorescence increment from the baseline, and the logarithmic value of the test compound concentration and the inhibitory activity were plotted to calculate the IC50 value. The analysis was carried out by measuring the fluorescence at 510 nm emitted when the cells were irradiated with exciting light at 485 nm.
Base buffer: 140 mM NaCl, 5 mM KCl, 1 mM MgCl2, 0.5 mM CaCl2, 10 mM Glucose, and 10 mM HEPES, pH 7.3
Buffer A: Equilibrium potential of potassium: −92 mV

T1 sequence (O95180 whole entry): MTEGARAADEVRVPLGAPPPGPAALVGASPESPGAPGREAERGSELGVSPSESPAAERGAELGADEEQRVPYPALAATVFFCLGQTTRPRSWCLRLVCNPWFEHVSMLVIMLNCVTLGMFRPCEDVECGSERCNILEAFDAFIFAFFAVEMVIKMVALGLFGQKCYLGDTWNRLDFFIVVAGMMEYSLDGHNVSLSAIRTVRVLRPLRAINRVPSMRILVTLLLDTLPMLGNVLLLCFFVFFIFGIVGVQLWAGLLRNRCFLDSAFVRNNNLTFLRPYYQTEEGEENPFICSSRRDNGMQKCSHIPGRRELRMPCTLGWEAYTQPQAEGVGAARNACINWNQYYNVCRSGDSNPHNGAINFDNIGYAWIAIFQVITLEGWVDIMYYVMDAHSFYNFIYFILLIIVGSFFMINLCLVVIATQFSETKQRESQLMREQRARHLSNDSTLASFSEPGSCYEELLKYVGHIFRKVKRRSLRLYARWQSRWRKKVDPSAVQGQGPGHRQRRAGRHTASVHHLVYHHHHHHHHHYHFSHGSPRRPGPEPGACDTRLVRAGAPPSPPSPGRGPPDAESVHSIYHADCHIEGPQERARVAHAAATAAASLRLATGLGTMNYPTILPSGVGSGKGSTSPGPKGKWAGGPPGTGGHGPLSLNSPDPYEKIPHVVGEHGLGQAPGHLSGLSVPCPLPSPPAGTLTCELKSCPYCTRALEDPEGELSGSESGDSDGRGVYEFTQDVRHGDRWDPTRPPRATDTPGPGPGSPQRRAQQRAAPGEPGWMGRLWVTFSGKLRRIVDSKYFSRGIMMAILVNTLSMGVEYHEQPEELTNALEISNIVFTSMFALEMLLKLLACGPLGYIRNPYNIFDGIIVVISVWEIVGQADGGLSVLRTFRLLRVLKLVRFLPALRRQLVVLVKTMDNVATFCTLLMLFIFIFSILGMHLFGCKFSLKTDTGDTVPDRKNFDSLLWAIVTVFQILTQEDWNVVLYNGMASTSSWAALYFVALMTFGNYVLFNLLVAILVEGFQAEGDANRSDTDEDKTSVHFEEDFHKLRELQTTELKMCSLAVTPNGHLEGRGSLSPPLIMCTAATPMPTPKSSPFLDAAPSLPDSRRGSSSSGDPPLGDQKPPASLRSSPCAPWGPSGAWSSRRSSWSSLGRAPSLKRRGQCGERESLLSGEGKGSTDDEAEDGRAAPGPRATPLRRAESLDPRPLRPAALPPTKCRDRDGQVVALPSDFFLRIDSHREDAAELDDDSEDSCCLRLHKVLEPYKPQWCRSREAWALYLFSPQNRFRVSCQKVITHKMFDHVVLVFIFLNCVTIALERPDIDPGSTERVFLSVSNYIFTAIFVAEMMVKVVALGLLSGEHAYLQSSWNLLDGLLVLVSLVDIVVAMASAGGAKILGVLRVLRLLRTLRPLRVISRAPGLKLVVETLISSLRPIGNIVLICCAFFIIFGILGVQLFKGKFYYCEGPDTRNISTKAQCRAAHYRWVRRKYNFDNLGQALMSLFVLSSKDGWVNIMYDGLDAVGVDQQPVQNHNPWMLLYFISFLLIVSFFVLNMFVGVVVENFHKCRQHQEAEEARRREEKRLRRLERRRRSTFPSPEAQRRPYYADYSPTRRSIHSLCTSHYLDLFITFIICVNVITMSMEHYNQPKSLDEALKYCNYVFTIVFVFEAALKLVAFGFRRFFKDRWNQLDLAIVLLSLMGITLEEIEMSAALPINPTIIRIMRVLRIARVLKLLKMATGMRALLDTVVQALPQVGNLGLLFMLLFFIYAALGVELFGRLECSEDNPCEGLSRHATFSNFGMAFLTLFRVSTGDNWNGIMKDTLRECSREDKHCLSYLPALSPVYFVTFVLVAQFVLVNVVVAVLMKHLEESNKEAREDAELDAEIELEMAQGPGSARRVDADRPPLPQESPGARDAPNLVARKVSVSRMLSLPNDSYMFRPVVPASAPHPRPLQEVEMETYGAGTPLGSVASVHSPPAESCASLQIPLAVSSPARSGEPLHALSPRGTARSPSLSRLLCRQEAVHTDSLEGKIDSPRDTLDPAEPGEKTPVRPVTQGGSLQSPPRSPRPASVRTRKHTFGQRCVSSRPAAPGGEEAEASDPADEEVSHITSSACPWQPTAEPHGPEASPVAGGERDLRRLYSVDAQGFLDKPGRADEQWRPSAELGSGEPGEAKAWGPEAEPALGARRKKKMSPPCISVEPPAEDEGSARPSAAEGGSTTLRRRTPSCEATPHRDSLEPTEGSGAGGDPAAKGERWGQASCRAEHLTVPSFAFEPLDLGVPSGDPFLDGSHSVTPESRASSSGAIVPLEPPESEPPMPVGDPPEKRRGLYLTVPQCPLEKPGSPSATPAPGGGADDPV

Row | Structure (SMILES) | IC50 [nM]
1 | C[C@@H](NC(=O)C1CC1c1cn(C)c2ccccc12)c1ccc(OCC(F)(F)F)s1 (single isomer, unassigned) [Example 29B] | > 10000
2 | C[C@@H](NC(=O)C1CC1c1nc2ccccc2[nH]1)c1ccc(C(N)=O)s1 (single isomer, unassigned) [Example 30] | > 10000
3 | C[C@@H](NC(=O)C1CC1c1nc(-c2ccccc2)c[nH]1)c1ccc(OCC(F)(F)F)s1 (single isomer, unassigned) [Example 31B] | 100 to 1000
4 | C[C@@H](NC(=O)C1CC1c1ccc2ccccc2n1)c1ccc(OCC(F)(F)F)s1 (single isomer, unassigned) [Example 34B] | 100 to 1000
5 | C[C@@H](NC(=O)C1CC1c1nc2cccnc2[nH]1)c1ccc(OCC(F)(F)F)s1 (single isomer, unassigned) [Example 35] | 1000 to 10000
6 | C[C@@H](NC(=O)C1CC1c1nccn1Cc1ccccc1)c1ccc(OCC(F)(F)F)s1 (single isomer, unassigned) [Example 38A] | > 10000
7 | C[C@@H](NC(=O)C1CC1c1nccn1Cc1ccccc1)c1ccc(OCC(F)(F)F)s1 (single isomer, unassigned) [Example 38B] | > 10000
8 | C[C@@H](NC(=O)C1CC1c1nc2ccccc2o1)c1ccc(OCC(F)(F)F)s1 (single isomer, unassigned) [Example 40A] | > 10000
9 | C[C@@H](NC(=O)C1CC1c1nc2ccccc2o1)c1ccc(OCC(F)(F)F)s1 (single isomer, unassigned) [Example 40B] | > 10000
10 | CC(C)[C@@H](NC(=O)C1CC1c1nc2ccccc2[nH]1)c1ccc(OCC(F)(F)F)s1 (single isomer, unassigned) [Example 44] | ≤ 100
11 | C[C@@H](NC(=O)C1CC1c1ccc2ccccc2n1)c1ccc(Br)s1 (single isomer, unassigned) [Example 45] | 100 to 1000
12 | C[C@@H](NC(=O)C1CC1c1cn(C)c2ccccc12)c1cnc(OCC(F)(F)F)s1 (single isomer, unassigned) [Example 48] | ≤ 100
13 | C[C@@H](NC(=O)C1CC1c1nc2cc(Cl)ccc2[nH]1)c1ccc(OCC(F)(F)F)s1 (single isomer, unassigned) [Example 53A] | ≤ 100
14 | C[C@@H](NC(=O)C1CC1c1nc2cc(Cl)ccc2[nH]1)c1ccc(OCC(F)(F)F)s1 (single isomer, unassigned) [Example 53B] | 100 to 1000
15 | CCn1c(C2CC2C(=O)N[C@H](C)c2cnc(OCC(F)(F)F)s2)nc2ccccc21 (single isomer, unassigned) [Example 57A] | 100 to 1000
16 | CCn1c(C2CC2C(=O)N[C@H](C)c2cnc(OCC(F)(F)F)s2)nc2ccccc21 (single isomer, unassigned) [Example 57B] | 1000 to 10000
17 | C[C@@H](NC(=O)C1CC1c1nc2cc(Cl)ccc2[nH]1)c1cnc(OCC(F)(F)F)s1 (single isomer, unassigned) [Example 64B] | 1000 to 10000
18 | COc1ccc2[nH]c(C3CC3C(=O)N[C@H](C)c3ccc(OCC(F)(F)F)s3)nc2c1 (single isomer, unassigned) [Example 71A] | 100 to 1000
19 | COc1ccc2[nH]c(C3CC3C(=O)N[C@H](C)c3ccc(OCC(F)(F)F)s3)nc2c1 (single isomer, unassigned) [Example 71B] | 100 to 1000
20 | C[C@@H](NC(=O)C1CC1c1nc2cc(Cl)ccc2[nH]1)c1nc(C2CC2)no1 (single isomer, unassigned) [Example 77A] | 100 to 1000
21 | C[C@@H](NC(=O)C1CC1c1nc2cc(Cl)ccc2[nH]1)c1nc(C2CC2)no1 (single isomer, unassigned) [Example 77B] | 1000 to 10000
22 | C[C@@H](NC(=O)C1CC1c1nc2cc(Cl)cnc2[nH]1)c1ccc(OCC(F)(F)F)s1 (single isomer, unassigned) [Example 85A] | 1000 to 10000

Row | Structure (SMILES) | IC50 [nM]
23 | C[C@@H](NC(=O)C1CC1c1nc2cc(Cl)cnc2[nH]1)c1ccc(OCC(F)(F)F)s1 (single isomer, unassigned) [Example 85B] | > 10000
24 | C[C@@H](NC(=O)C1CC1c1c[nH]c2ccccc12)c1cc2cc(F)ccc2o1 (single isomer, unassigned) [Example 98A] | 100 to 1000
25 | C[C@@H](NC(=O)C1CC1c1c[nH]c2ccccc12)c1cc2cc(F)ccc2o1 (single isomer, unassigned) [Example 98B] | 100 to 1000
26 | C[C@@H](NC(=O)C1CC1c1ccc2cnn(C)c2c1)c1cc2cc(F)ccc2o1 (single isomer, unassigned) [Example 103A] | 100 to 1000
27 | C[C@@H](NC(=O)C1CC1c1ccc2cnn(C)c2c1)c1cc2cc(F)ccc2o1 (single isomer, unassigned) [Example 103B] | > 10000
28 | Cc1ccc2nc(C3CC3C(=O)N[C@H](C)c3ccc(OCC(F)(F)F)s3)[nH]c2n1 (single isomer, unassigned) [Example 106A] | 1000 to 10000
29 | Cc1ccc2nc(C3CC3C(=O)N[C@H](C)c3ccc(OCC(F)(F)F)s3)[nH]c2n1 (single isomer, unassigned) [Example 106B] | 1000 to 10000
30 | C[C@@H](NC(=O)C1CC1c1nc2cc(Cl)ccc2o1)c1cc2cc(F)ccc2o1 (single isomer, unassigned) [Example 108A] | 100 to 1000
31 | C[C@@H](NC(=O)C1CC1c1nc2cc(Cl)ccc2o1)c1cc2cc(F)ccc2o1 (single isomer, unassigned) [Example 108B] | 100 to 1000
32 | C[C@@H](NC(=O)C1CC1COc1ccc(F)cc1)c1cc2cc(F)ccc2o1 (single isomer, unassigned) [Example 112A] | 1000 to 10000
33 | C[C@@H](NC(=O)C1CC1COc1ccc(F)cc1)c1cc2cc(F)ccc2o1 (single isomer, unassigned) [Example 112B] | 100 to 1000
34 | C[C@@H](NC(=O)C1CC1c1ncc2ccccn12)c1cc2cc(F)ccc2o1 (single isomer, unassigned) [Example 117B] | 1000 to 10000
35 | C[C@@H](NC(=O)C1CC1c1nc2c(Cl)cccc2[nH]1)c1ccc(OCC(F)(F)F)s1 (single isomer, unassigned) [Example 122A] | ≤ 100
36 | C[C@@H](NC(=O)C1CC1c1nc2c(Cl)cccc2[nH]1)c1ccc(OCC(F)(F)F)s1 (single isomer, unassigned) [Example 122B] | 100 to 1000
37 | CC(NC(=O)[C@H]1C[C@@H]1c1nc2ccccc2[nH]1)c1nc2ccc(F)cc2[nH]1 (single isomer, unassigned) [Example 127A] | 100 to 1000
38 | CC(NC(=O)[C@H]1C[C@@H]1c1nc2ccccc2[nH]1)c1nc2ccc(F)cc2[nH]1 (single isomer, unassigned) [Example 127B] | 1000 to 10000
39 | C[C@@H](NC(=O)C1CC1C(=O)Nc1cccc(C(F)(F)F)c1)c1cc2cc(F)ccc2o1 (single isomer, unassigned) [Example 130B] | 100 to 1000
40 | C[C@@H](NC(=O)C1CC1c1nc2ccccc2[nH]1)c1ccc(C(=O)N2CCOCC2)s1 (stereo in doubt) [Example 56, Trans-2-(1H-benzo[d]imidazol-2-yl)-N—((R)-1-(5-(morpholine-4-carbonyl)thiophen-2-yl)ethyl)cyclopropane-1-carboxamide] | 1000 to 10000
41 | C[C@@H](NC(=O)C1CC1c1nc2ccccc2[nH]1)c1ccc(C(=O)N2CCCC2(C)C)s1 (stereo in doubt) [Example 67, Trans-2-(1H-benzo[d]imidazol-2-yl)-N—((R)-1-(5-(2,2-dimethylpyrrolidine-1-carbonyl)thiophen-2-yl)ethyl)cyclopropane-1-carboxamide] | 1000 to 10000
42 | C[C@@H](NC(=O)C1CC1c1nc2ccccc2[nH]1)c1ccc(C(=O)N2CCN(C)CC2)s1 (stereo in doubt) [Example 68, Trans-2-(1H-benzo[d]imidazol-2-yl)-N—((R)-1-(5-(4-methylpiperazine-1-carbonyl)thiophen-2-yl)ethyl)cyclopropane-1-carboxamide] | 1000 to 10000
43 | C[C@@H](NC(=O)C1CC1c1nc2ccccc2[nH]1)c1ccc(C(=O)N2CCNCC2)s1 (stereo in doubt) [Example 75, Trans-2-(1H-benzo[d]imidazol-2-yl)-N—((R)-1-(5-(piperazine-1-carbonyl)thiophen-2-yl)ethyl)cyclopropane-1-carboxamide] | 1000 to 10000
